Measurements reported in patent US11548903B2, “Bicyclic thiazine and oxazine derivatives as beta-secretase inhibitors and methods of use” (AMGEN INC., priority 2016, dated 2023).
Read-outs that look alike come from different tables or passages of the source.

Legend:
human recombinant BACE1 = human recombinant BACE1 (Homo sapiens (Human), UniProt P56817); assay: In vitro enzymatic BACE1 FRET assay; assay type: biochemical; settings: read-out: BACE1 Enzyme IC50
Experimental: (§1) In Vitro Enzymatic BACE1 and BACE2 FRET (Fluorescence Resonance Energy Transfer) Assays […] These recombinant proteins were further purified using Ni-NTA affinity chromatography (Qiagen). […] The assay was effectively started by the addition of FRET substrate (50 nM) and the combination was incubated for one hour. The FRET assay was terminated by the addition of tris buffer, which raised the pH to neutrality, and the fluorescence was determined. The FRET substrate was a peptide with commercially available fluorophore and quencher, on opposite sides of the BACE cleavage site. The specific FRET substrate used in this assay was made by Amgen in-house. Commercially available FRET substrates, for example, the FRET substrate offered with the BACE1 FRET Assay Kit sold by ThermoFisher Scientific (Catalog Number P2985), may be used in this assay with the appropriate modifications, which are within the purview of the ability of a person with ordinary skill in the art. Proteolytic cleavage of the FRET substrate released quenching of fluorescence (excitation 488 nm and emission 590 nm).

[1] = system: BACE1 (Aβ40 from cells stably expressing Amyloid Precursor Protein); assay: In vitro BACE1 cell-based assay (Aβ40 in conditioned medium, HTRF)
Experimental: In Vitro BACE1 Cell-Based Assay The cell-based assay measures inhibition or reduction of Aβ40 in conditioned medium of test compound treated cells expressing amyloid precursor protein. Cells stably expressing Amyloid Precursor Protein (APP) were plated at a density of 45K cells/well in 384 well plates (Corning/BioCoat 354663). The test compounds were then added to cells in 22-point dose response concentrations with the starting concentration being 62.5 μM. The compounds were diluted from stock solutions in DMSO and the final DMSO concentration of the test compounds on cells was 0.625%. The cells were cultivated overnight at 37° C. and 5% CO2 in DMEM supplemented with 10% FBS. After 24 h of incubation with the test compounds, the conditioned media was collected and the Aβ40 levels were determined using HTRF (Homogeneous Time Resolved Fluorescence). […] The HTRF to detect Aβ40 was performed in 384 well plates (Costar 3658). The antibody pair that were used to detect Aβ 40 from cell supernatants were ConfAb40 antibody (Amgen in-house) and biotinylated 6E10 (BIOLEGEND). As an alternative to ConfAb40, a commercially available antibody, Anti-beta Amyloid 1-40 antibody [BDI350] from Abcam, Cambridge, Mass. 02139-1517 (Product code: ab20068), may be used in this assay. […] The conditioned media was incubated with above antibodies and Streptavidin Allophycocyanin Conjugate for 30-60 minutes at 23° C. The final readout was performed on Envision from PerkinElmer.

human recombinant BACE2 = human recombinant BACE2 (Homo sapiens (Human), UniProt Q9Y5Z0); assay: In vitro enzymatic BACE2 FRET assay; assay type: biochemical; settings: read-out: BACE2 Enzyme IC50
Sequence of human recombinant BACE2 (Q9Y5Z0 63-518): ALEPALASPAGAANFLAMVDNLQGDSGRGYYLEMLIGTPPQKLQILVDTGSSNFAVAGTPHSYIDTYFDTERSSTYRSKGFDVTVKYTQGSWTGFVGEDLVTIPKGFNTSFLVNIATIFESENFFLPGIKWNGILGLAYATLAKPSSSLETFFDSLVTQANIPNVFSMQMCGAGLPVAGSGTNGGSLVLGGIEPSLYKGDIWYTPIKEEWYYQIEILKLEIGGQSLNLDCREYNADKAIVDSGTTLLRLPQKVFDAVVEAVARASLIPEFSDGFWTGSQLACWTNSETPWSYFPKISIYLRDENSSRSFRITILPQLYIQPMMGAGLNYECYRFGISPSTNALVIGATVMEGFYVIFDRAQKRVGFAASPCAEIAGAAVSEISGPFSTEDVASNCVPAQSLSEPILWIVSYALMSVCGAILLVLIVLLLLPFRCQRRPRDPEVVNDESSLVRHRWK
Experimental: as §1

Recombinant CatD = Recombinant CatD (Homo sapiens (Human), UniProt P07339); assay: In vitro enzymatic Cathepsin D (CatD) FRET assay; assay type: biochemical; settings: read-out: Cat D Enzyme IC50
Sequence of Recombinant CatD (P07339 65-412): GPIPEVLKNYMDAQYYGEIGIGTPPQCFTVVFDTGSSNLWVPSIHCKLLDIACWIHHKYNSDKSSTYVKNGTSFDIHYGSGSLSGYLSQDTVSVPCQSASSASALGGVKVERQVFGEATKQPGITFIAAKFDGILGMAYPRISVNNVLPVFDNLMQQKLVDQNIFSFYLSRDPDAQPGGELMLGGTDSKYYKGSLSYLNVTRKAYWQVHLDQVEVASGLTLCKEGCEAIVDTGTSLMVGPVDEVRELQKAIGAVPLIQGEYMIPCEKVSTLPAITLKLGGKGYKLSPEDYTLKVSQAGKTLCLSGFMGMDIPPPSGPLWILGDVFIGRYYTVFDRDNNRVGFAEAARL
Experimental: In Vitro Enzymatic Cathepsin D (CatD) FRET Assay Recombinant CatD was expressed in CHO cells. The assay buffer for CatD was 0.05 M citrate pH 3.5, 10% DMSO final, 5 mM CHAPS. […] The assays was effectively started by the addition of different FRET substrates (20 nM for CatD) and the combination was incubated for one hour. The FRET assay was terminated with by addition of tris buffer, which raises the pH to neutrality, and the fluorescence was determined. The FRET substrate was a peptide with commercially available fluorophore and quencher, on opposite sides of the CatD cleavage site. The CatD substrate peptide sequence was based on sequence #1 of Table 1 from Gulnik et al., FEBS Lett. 413(2):379-384 (1997). Proteolytic cleavage of the FRET substrate released quenching of fluorescence (CatD excitation 500 nm and emission 580 nm). The in vitro CatD FRET assay data for each of the Examples is provided in Table 2, conducted by the first procedure described above. […] Thus, with this surprising selectivity profile, the compounds provided herein are believed to minimize, reduce or completely eliminate any risk of retinal atrophy and abnormal development of the eye and of the retinal pigmented epithelium as it relates to the normal function and activity of CatD.

[2] = Aβ40, 24 h incubation, read-out: BACE1 Cell IC50
[3] = 24 h, read-out: BACE1 Cell IC50 (μM)

Sequence of human recombinant BACE1 (P56817 46-501): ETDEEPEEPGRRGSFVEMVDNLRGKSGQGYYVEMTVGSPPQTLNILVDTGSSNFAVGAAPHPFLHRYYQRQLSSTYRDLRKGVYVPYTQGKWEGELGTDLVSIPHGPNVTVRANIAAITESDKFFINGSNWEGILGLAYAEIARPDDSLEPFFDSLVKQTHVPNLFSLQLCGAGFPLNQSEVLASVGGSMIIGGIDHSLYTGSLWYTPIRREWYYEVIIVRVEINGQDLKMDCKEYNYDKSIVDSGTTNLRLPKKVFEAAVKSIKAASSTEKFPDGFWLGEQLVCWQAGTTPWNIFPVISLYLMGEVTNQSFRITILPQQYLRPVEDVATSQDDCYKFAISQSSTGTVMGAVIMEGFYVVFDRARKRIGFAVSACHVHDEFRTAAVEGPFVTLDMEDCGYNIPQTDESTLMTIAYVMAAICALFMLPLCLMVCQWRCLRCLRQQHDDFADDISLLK

SMILES | IC50 (human recombinant BACE1) [nM] | IC50 [1, 2] [µM] | IC50 (human recombinant BACE2) [nM] | IC50 (Recombinant CatD) [nM] | IC50 [1, 3] [µM]
C#CCOc1cnc(/C(F)=C/c2ccc(F)c([C@]34CN(C(=O)OC(C)C)C[C@H]3CSC(N)=N4)c2)cn1 [Example 124, (4aR,7aS)-isopropyl 2-amino-7a-(2-fluoro-5-((Z)-2-fluoro-2-(5-(prop-2-yn-1-yloxy)pyrazin-2-yl)vinyl)phenyl)-4a,5,7,7a-tetrahydropyrrolo[3,4-d][1,3]thiazine-6(4H)-carboxylate] | 2.62 |  | 92.2 | 23800 | 0.00269
C#CCOc1cnc(/C(F)=C/c2ccc(F)c([C@]34CN(C(=O)OC(C)(C)C)C[C@H]3CSC(N)=N4)c2)cn1 [Example 116, (4aR,7aS)-tert-butyl 2-amino-7a-(2-fluoro-5-((Z)-2-fluoro-2-(5-(prop-2-yn-1-yloxy)pyrazin-2-yl)vinyl)phenyl)-4a,5,7,7a-tetrahydropyrrolo[3,4-d][1,3]thiazine-6(4H)-carboxylate] | 2.53 |  | 52 | 28600 | 0.00188
C#CCOc1cnc(/C(F)=C/c2ccc(F)c([C@]34CN(c5ncccn5)C[C@H]3CSC(N)=N4)c2)cn1 [Example 120, (4aR,7aS)-7a-(2-fluoro-5-((Z)-2-fluoro-2-(5-(prop-2-yn-1-yloxy)pyrazin-2-yl)vinyl)phenyl)-6-(pyrimidin-2-yl)-4,4a,5,6,7,7a-hexahydropyrrolo[3,4-d][1,3]thiazin-2-amine] | 0.186 | 0.00076 | 34 | 6300 | 
N#Cc1ccc(/C(F)=C/c2ccc(F)c([C@@]34CO[C@@H](CF)[C@@H]3CSC(N)=N4)c2)nc1 [Example 133, 6-((Z)-2-(3-((4aR,5R,7aR)-2-amino-5-(fluoromethyl)-4a,5,7,7a-tetrahydro-4H-furo[3,4-d][1,3]thiazin-7a-yl)-4-fluorophenyl)-1-fluorovinyl)nicotinonitrile] | 1220 | 2 | 28000 | 139000 | 
N#Cc1cnc(/C(F)=C/c2ccc(F)c([C@]34CN(c5ncc(F)cn5)C[C@H]3CSC(N)=N4)c2)cn1 [Example 111, 5-((Z)-2-(3-((4aR,7aS)-2-amino-6-(5-fluoropyrimidin-2-yl)-4,4a,5,6,7,7a-hexahydropyrrolo[3,4-d][1,3]thiazin-7a-yl)-4-fluorophenyl)-1-fluorovinyl)pyrazine-2-carbonitrile] | 0.32 | 0.000807 | 5.18 | 19600 | 

More lines, main results first:

IC50 (human recombinant BACE1) [nM] | IC50 [1, 2] [µM] | IC50 (human recombinant BACE2) [nM] | IC50 (Recombinant CatD) [nM] | SMILES | IC50 [1, 3] [µM]
86.2 | 0.161 | 9720 | 237000 | N#Cc1ccc(/C(F)=C/c2ccc(F)c([C@@]34CO[C@@H](C(F)(F)F)[C@@H]3COC(N)=N4)c2)nc1 (racemic) [Example 141, 6-((Z)-2-(3-((4aR,5S,7aS)-2-amino-5-(trifluoromethyl)-4a,5,7,7a-tetrahydro-4H-furo[3,4-d][1,3]oxazin-7a-yl)-4-fluorophenyl)-1-fluorovinyl)nicotinonitrile and 6-((Z)-2-(3-((4aS,5R,7aR)-2-amino-5-(trifluoromethyl)-4a,5,7,7a-tetrahydro-4H-furo[3,4-d][1,3]oxazin-7a-yl)-4-fluorophenyl)-1-fluorovinyl)nicotinonitrile] | 
15.8 | 0.117 | 1500 | > 400000 | NC1=N[C@@]2(c3cc(/C=C(\F)c4ccc(C(F)(F)F)cn4)ccc3F)CO[C@H](C(F)(F)F)[C@H]2CS1 [Example 139, (4aS,5S,7aS)-7a-(2-fluoro-5-((Z)-2-fluoro-2-(5-(trifluoromethyl)pyridin-2-yl)vinyl)phenyl)-5-(trifluoromethyl)-4a,5,7,7a-tetrahydro-4H-furo[3,4-d][1,3]thiazin-2-amine] | 
27.2 | 0.116 | 1140 | > 400000 | Cc1cc(C#N)cnc1/C(F)=C/c1ccc(F)c([C@]23CO[C@H](C(F)(F)F)[C@H]2CSC(N)=N3)c1 [Example 138, 6-((Z)-2-(3-((4aS,5S,7aS)-2-amino-5-(trifluoromethyl)-4a,5,7,7a-tetrahydro-4H-furo[3,4-d][1,3]thiazin-7a-yl)-4-fluorophenyl)-1-fluorovinyl)-5-methylnicotinonitrile] | 
